The values below are quoted from earlier work in US20260293888A1, “METHODS OF TREATING MOLD” (priority 2023, published 2026).

Each structure is given as a SMILES string.

On to `OCCOCCOCCO` [Triethylene glycol, triethylene glycol], for which the flash point (TEG alone) was 157 °C. Moreover, the boiling point (at a pressure of 101.325 kPa) is 286.5 °C. Moreover, the vapor pressure result (compared to water) was “relative low vapor pressure compared to water”. Besides, the miscibility with water entry (water) was “miscible with water”.

A word on the boiling point: it is the temperature at which the vapour pressure of the liquid equals the pressure above it.
